Results on 2 molecules are retold here after patent US6759060B2, “Synthetic particulate vectors and preparation process” (Biovector Therapeutics, S.A., priority 1993, dated 2004).

For data set [1] the following is noted: cited from earlier work.
The nature of data set [2]: Filterability of ddCTP/PSC (filtration yield). In kind it is physicochemical. The conditions noted are these: ddCTP with or without cationic PSC.

“And” between values parts separate entries of the source, which are not always exact repeats. Identical values can stand only once.

Regarding `COc1cccc2c1C(=O)c1c(O)c3c(c(O)c1C2=O)C[C@@](O)(C(=O)CO)C[C@@H]3O[C@H]1C[C@H](N)[C@H](O)[C@H](C)O1` [Doxorubicin], the pKa in data set [1] is 8.5 and 8.2-8.5.
In data set [2], “dideoxy cytidine triphosphate [Free ddCTP]” showed a Filtration yield % of 99.4 ± 0.8%.
